Test results published in publication PMC12502564, “Evaluation of LLM-generated peptide as foundation template for discovery of effective encrypted AMPs against clinical superbugs” (Microbiology Spectrum, 2025).
No end group written: not given here.

Columns and labels:
[1] = system: A. baumannii ATCC19606; format: cell-based, Acinetobacter baumannii
Experimental: The MIC of all peptides was determined using the microdilution broth method in a 96-well plate. Peptides were dissolved in the DMSO with an initial concentration of 12,800 µg mL^−1. And cells of eight strains were separately suspended in the MHB at a density of approximately 10^5 CFU mL^−1. In the first column of the 96-well plate, 16 µL of peptide and 184 µL of MHB were added to each well to achieve a final concentration of 1,024 µg mL^−1. One-hundred microliters of MHB was added to each of the remaining wells. Then the first column of liquid was mixed well and diluted to the 12th column using the twofold dilution method. One-hundred microliters of prepared bacterial solution was added to all wells, and the 96-well plate was incubated at 37°C for 18–24 h. The MIC was defined as the concentration of the peptide in the well just preceding the first well showing visible turbidity. All experiments were performed in triplicate to ensure reliability.

[2] = system: CRAB; test: Drug resistance assay, 20 passages; format: cell-based, carbapenem-resistant Acinetobacter baumannii; conditions: 20 passages at 0.5-fold MIC, n = 3
Experimental: Resistance development assays were performed following previous report ([43]). CRAB was cultured overnight at 37°C at 160 rpm in LB. In wells of a 96-well polypropylene flat-bottom plate, 5 µL of the overnight bacterial culture (10^7 CFU mL^−1) was added to 100 µL of peptides/antibiotic solutions (with final concentrations of 0.25 to 512 µg mL^−1) in MHB. Plates were incubated for 18 to 20 h at 37°C. The MIC, the lowest concentration of peptides/antibiotic that caused lack of visible bacterial growth, was determined for each bacterial species. Thereafter, 5 µL of the growth at the 0.5-fold MIC suspension (10^7 CFU mL^−1) was added to a fresh medium containing peptides/antibiotic, and these mixtures were incubated as described above. This was repeated for 20 passages. All experiments were performed in triplicate to ensure reliability.

[3] = system: CRAB 2210186; conditions: 10% fetal bovine serum, room temperature, 1–6 h, then MIC assay, triplicate
Experimental: For serum sensitivity experiments, the peptide to be tested was incubated in 10% fetal bovine serum at room temperature for 1–6 h. After deactivation, the MICs of peptides against CRAB 2210186 and MRSA 2210187 were measured using the MIC assay. All experiments were performed in triplicate to ensure reliability.

[4] = system: CRAB 2210186; test: Thigh infection mouse model; format: in vivo, BALB/c mice; conditions: neutropenic mice, ~1 × 10^6 CFU in thigh, i.p. at 1, 3, 5, 7 h post-infection (PL-15 10 × MIC, 100 µL; polymyxin B 20,000–25,000 U kg^−1 day^−1), n = 8
Excerpt: The WHO has classified CRAB as a “Critical Priority” pathogen in its Priority Pathogens List, recognizing it as a predominant causative agent of hospital-acquired infections ([2]). This classification reflects CRAB’s global dissemination, high mortality rates, and extreme resistance profiles. Given this critical situation, a thigh infection model was employed to evaluate the in vivo therapeutic efficacy of PL-15 against CRAB. To establish the mouse thigh infection model, mice were pre-treated intraperitoneally with cyclophosphamide 4 days and 1 day prior to bacterial inoculation to induce neutropenia, administered at doses of 150 mg kg^−1 and 100 mg kg^−1, respectively ([51]). Each mouse was then injected with approximately 10^6 colony-forming unit (CFU) of CRAB in the thigh tissue, followed by four intraperitoneal injections of PL-15, polymyxin B, or phosphate-buffered saline (PBS) within 24 h of infection (Fig. 3a).
All animal experiments were performed according to the “Principles of Laboratory Animal Care” (NIH publication No. 86-23, revised 1985) and approved by the Animal Care and Use Committee of Shandong University (LL20240622, Jinan, China). Five-week-old male BALB/c mice were purchased from Beijing Vital River Laboratory Animal Technology Co., Ltd. (Beijing, China) and kept under a 12-hour light/12-hour dark cycle, humidity of 50%, and temperature of 22°C in standard specific pathogen-free individually vented cages.
To establish the mouse thigh infection model, mice were injected intraperitoneally with cyclophosphamide 4 d and 1 d before bacterial administration, at concentrations of 150 and 100 mg kg^−1, respectively, to induce neutropenia ([51]). CRAB 2210186 cells were suspended in sterile PBS, adjusted to a concentration of ~1 × 10^6 CFU per infection site and injected into the right thighs of eight mice per treatment group. PL-15 (10 × MIC, 100 µL), polymyxin B (20,000–25,000 U kg^−1 day^−1) or PBS were administered intraperitoneally at 1, 3, 5, and 7 h post-infection. Mice were euthanized 24 h after infection, and the thigh tissues were aseptically collected, weighed, homogenized, serially diluted in PBS, and plated onto solid MCA. The CFU of CRAB 2210186 per thigh was calculated by plating dilutions of the thigh homogenates (0.25 g of thigh tissue in 10 mL sterile PBS) on agar plates and counting colonies.

With WLKRILKWIGNKLKW [PL-15] the MIC [1] was “lower than 11 µg mL^−1”, the “MIC change after serial passaging” value [2] was “within a twofold range” and the “fold change in MIC after incubation in serum” value [3] was “maximum twofold increase”. The “reduction of bacterial load compared to the PBS control group” value ([4]; 24 h) was “two orders of magnitude” and the “bacteria eradicated in the thigh tissue within 24 h” value [4] was “over 97%”.
